Read-outs that look alike come from different tables or passages of the source.
What was measured:
human V2 receptor = biological target: T1, human V2 receptor (Homo sapiens, UniProt P30518); test: Cellular in vitro assay for determining vasopressin receptor activity, V2 receptor cell line (CHO, CRE-luciferase); format: cell-based; details: CHO cell line transfected with human V2 receptor, [Arg8]-vasopressin at EC50 concentration, read-out: IC50 hV2
T1 construct: expressed in transfected cells; host or cells: CHO K1 (ATCC) expressing firefly luciferase under a CRE-responsive promoter
T1 sequence (P30518 whole entry): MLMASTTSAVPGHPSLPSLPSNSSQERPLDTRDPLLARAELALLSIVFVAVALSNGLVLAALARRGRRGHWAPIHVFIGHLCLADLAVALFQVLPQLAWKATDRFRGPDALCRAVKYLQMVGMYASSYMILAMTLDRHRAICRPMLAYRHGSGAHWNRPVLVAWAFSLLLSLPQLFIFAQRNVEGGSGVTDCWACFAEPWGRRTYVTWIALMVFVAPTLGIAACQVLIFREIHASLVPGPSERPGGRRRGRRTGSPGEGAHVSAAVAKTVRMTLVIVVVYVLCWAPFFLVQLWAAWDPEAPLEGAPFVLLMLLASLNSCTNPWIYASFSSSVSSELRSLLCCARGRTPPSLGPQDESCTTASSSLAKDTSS

human V1a receptor = biological target: T2, human V1a receptor (Homo sapiens, UniProt P37288); test: Cellular in vitro assay for determining vasopressin receptor activity, V1a receptor cell line (CHO, aequorin luminescence); format: cell-based; details: for IC50: CHO cell line transfected with human V1a receptor, [Arg]-vasopressin at EC50 concentration, read-out: IC50 hV1a; for ratio IC50 hV2/hV1a: selectivity ratio IC50 hV2 / IC50 hV1a
T2 construct: expressed in transfected cells; host or cells: CHO K1 (ATCC), also stably transfected with a modified aequorin
T2 sequence (P37288 whole entry): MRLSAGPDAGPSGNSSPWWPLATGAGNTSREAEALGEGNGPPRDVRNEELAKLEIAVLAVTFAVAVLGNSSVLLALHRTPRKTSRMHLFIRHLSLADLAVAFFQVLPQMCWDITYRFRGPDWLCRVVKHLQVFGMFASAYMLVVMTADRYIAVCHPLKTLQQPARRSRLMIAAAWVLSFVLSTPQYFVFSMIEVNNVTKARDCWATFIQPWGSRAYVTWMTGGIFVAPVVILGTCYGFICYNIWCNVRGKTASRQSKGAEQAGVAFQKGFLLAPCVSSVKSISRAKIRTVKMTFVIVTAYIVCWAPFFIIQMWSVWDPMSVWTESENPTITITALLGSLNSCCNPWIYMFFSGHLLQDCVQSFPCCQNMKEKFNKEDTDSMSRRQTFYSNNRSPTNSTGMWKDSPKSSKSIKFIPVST
Method in brief: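 Luminescence from reconstituted aequorin, reporting intracellular calcium release, was measured immediately after adding [Arg]-vasopressin at EC50 concentration to CHO K1 cells pretreated 10 minutes with graded compound concentrations. Inhibition gave IC50 values.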

Row | SMILES | IC50 (human V2 receptor; 3 hours) [nM] | IC50 (human V1a receptor) [nM] | ratio IC50 hV2/hV1a (human V1a receptor) | IC50 (human V2 receptor) [nM]
1 | O=C(NCCN1CCCC1=O)c1ccccc1-n1cnc(Cn2nc(-c3ccc(Cl)cc3)n(C[C@H](O)C(F)(F)F)c2=O)n1 [Example 177, 2-[3-({3-(4-Chlorophenyl)-5-oxo-4-[(2S)-3,3,3-trifluoro-2-hydroxypropyl]-4,5-dihydro-1H-1,2,4-triazol-1-yl}methyl)-1H-1,2,4-triazol-1-yl]-N-[2-(2-oxopyrrolidin-1-yl)ethyl]benzamide] | 690 | 9.9 | 69.7 | –
2 | O=C(NCC(F)(F)F)c1cc(Cl)ccc1-n1cnc(Cn2nc(-c3ccc(Cl)cc3)n(C[C@H](O)C(F)(F)F)c2=O)n1 [Example 427, 5-Chloro-2-[3-({3-(4-chlorophenyl)-5-oxo-4-[(2S)-3,3,3-trifluoro-2-hydroxypropyl]-4,5-dihydro-1H-1,2,4-triazol-1-yl}methyl)-1H-1,2,4-triazol-1-yl]-N-(2,2,2-trifluoroethyl)benzamide] | – | 21 | 3.5 | 72.7
3 | O=C(c1ccccc1-n1cnc(Cn2nc(-c3ccc(Cl)cc3)n(C[C@H](O)C(F)(F)F)c2=O)n1)N1CC=CCC1 [Example 353, 5-(4-Chlorophenyl)-2-({1-[2-(3,6-dihydropyridin-1(2H)-ylcarbonyl)phenyl]-1H-1,2,4-triazol-3-yl}methyl)-4-[(2S)-3,3,3-trifluoro-2-hydroxypropyl]-2,4-dihydro-3H-1,2,4-triazol-3-one] | 280 | 0.94 | 299.5 | –
4 | O=C1CN(C(=O)c2nc(Cn3nc(-c4ccc(Cl)cc4)n(C[C@H](O)C(F)(F)F)c3=O)nn2-c2ncccc2C(=O)N[C@H]2C[C@H]2F)CCN1 (racemic) [Example 527, 2-{3-({3-(4-chlorophenyl)-5-oxo-4-[(2S)-3,3,3-trifluoro-2-hydroxypropyl]-4,5-dihydro-1H-1,2,4-triazol-1-yl}methyl)-5-[(3-oxopiperazin-1-yl)carbonyl]-1H-1,2,4-triazol-1-yl}-N-[2-fluorocyclopropyl]pyridine-3-carboxamide] | – | 1080 | 1.4 | 1530
5 | O=C(Nc1ccccc1Cl)c1ccccc1-n1cnc(Cn2nc(-c3ccc(Cl)cc3)n(C[C@H](O)C(F)(F)F)c2=O)n1 [Example 258, N-(2-Chlorophenyl)-2-[3-({3-(4-chlorophenyl)-5-oxo-4-[(2S)-3,3,3-trifluoro-2-hydroxypropyl]-4,5-dihydro-1H-1,2,4-triazol-1-yl}methyl)-1H-1,2,4-triazol-1-yl]benzamide] | 81.5 | 1.9 | 42.9 | –
6 | CC(C)(N)CNC(=O)c1cc(Cl)ccc1-n1cnc(Cn2nc(-c3ccc(Cl)cc3)n(C[C@H](O)C(F)(F)F)c2=O)n1 [Example 186, N-(2-Amino-2-methylpropyl)-5-chloro-2-[3-({3-(4-chlorophenyl)-5-oxo-4-[(2S)-3,3,3-trifluoro-2-hydroxypropyl]-4,5-dihydro-1H-1,2,4-triazol-1-yl}methyl)-1H-1,2,4-triazol-1-yl]benzamide] | 243 | 5.25 | 46.2 | –
7 | CN1CC2CC1CN2C(=O)c1ccccc1-n1cnc(Cn2nc(-c3ccc(Cl)cc3)n(C[C@H](O)C(F)(F)F)c2=O)n1 (stereo partly drawn) [Example 273, 5-(4-Chlorophenyl)-2-[(1-{2-[(5-methyl-2,5-diazabicyclo[2.2.1]hept-2-yl)carbonyl]phenyl}-1H-1,2,4-triazol-3-yl)methyl]-4-[(2S)-3,3,3-trifluoro-2-hydroxypropyl]-2,4-dihydro-3H-1,2,4-triazol-3-one] | 6200 | 13 | 476.9 | –
8 | O=C(NCCC(F)(F)F)c1cccnc1-n1nc(Cn2nc(-c3ccc(Cl)cc3)n(C[C@H](O)C(F)(F)F)c2=O)nc1C(=O)N1CCS(=O)(=O)CC1 [Example 529, 2-{3-({3-(4-Chlorophenyl)-5-oxo-4-[(2S)-3,3,3-trifluoro-2-hydroxypropyl]-4,5-dihydro-1H-1,2,4-triazol-1-yl}methyl)-5-[(1,1-dioxidothiomorpholin-4-yl)carbonyl]-1H-1,2,4-triazol-1-yl}-N-(3,3,3-trifluoropropyl)pyridine-3-carboxamide] | – | 97.5 | 29.7 | 2900
9 | O=C(NC1CC1(F)F)c1cccc(C(F)(F)F)c1-n1cnc(Cn2nc(-c3ccc(Cl)cc3)n(C[C@H](O)C(F)(F)F)c2=O)n1 (mixture of isomers) [Example 420, 2-[3-({3-(4-Chlorophenyl)-5-oxo-4-[(2S)-3,3,3-trifluoro-2-hydroxypropyl]-4,5-dihydro-1H-1,2,4-triazol-1-yl}methyl)-1H-1,2,4-triazol-1-yl]-N-[2,2-difluorocyclopropyl]-3-(trifluoromethyl)benzamide] | – | 58.5 | 19.7 | 1150
10 | CC1CC(C)CN(C(=O)c2ccccc2-n2cnc(Cn3nc(-c4ccc(Cl)cc4)n(C[C@H](O)C(F)(F)F)c3=O)n2)C1 (mixture of isomers) [Example 326, 5-(4-Chlorophenyl)-2-[(1-{2-[(3,5-dimethylpiperidin-1-yl)carbonyl]phenyl}-1H-1,2,4-triazol-3-yl)methyl]-4-[(2S)-3,3,3-trifluoro-2-hydroxypropyl]-2,4-dihydro-3H-1,2,4-triazol-3-one] | 1500 | 8.3 | 180.7 | –
11 | O=C(NCC1CC1)c1cccc(C(F)(F)F)c1-n1cnc(Cn2nc(-c3ccc(Cl)cc3)n(C[C@H](O)C(F)(F)F)c2=O)n1 [Example 419, 2-[3-({3-(4-Chlorophenyl)-5-oxo-4-[(2S)-3,3,3-trifluoro-2-hydroxypropyl]-4,5-dihydro-1H-1,2,4-triazol-1-yl}methyl)-1H-1,2,4-triazol-1-yl]-N-(cyclopropylmethyl)-3-(trifluoromethyl)benzamide] | – | 96 | 10.7 | 1020

Further lines, results first:

Row | IC50 (human V2 receptor; 3 hours) [nM] | IC50 (human V1a receptor) [nM] | ratio IC50 hV2/hV1a (human V1a receptor) | IC50 (human V2 receptor) [nM] | SMILES
12 | 10100 | 78.5 | 129.3 | – | CC1C(=O)NCCN1C(=O)c1ccccc1-n1cnc(Cn2nc(-c3ccc(Cl)cc3)n(C[C@H](O)C(F)(F)F)c2=O)n1 (mixture of isomers) [Example 280, 4-{2-[3-({3-(4-Chlorophenyl)-5-oxo-4-[(2S)-3,3,3-trifluoro-2-hydroxypropyl]-4,5-dihydro-1H-1,2,4-triazol-1-yl}methyl)-1H-1,2,4-triazol-1-yl]benzoyl}-3-methylpiperazin-2-one]
13 | 363 | 43.5 | 8.4 | – | NC(=O)[C@H]1CCCN1c1ncccc1-n1cnc(Cn2nc(-c3ccc(Cl)cc3)n(C[C@H](O)C(F)(F)F)c2=O)n1 [Example 66, 1-{3-[3-({3-(4-Chlorophenyl)-5-oxo-4-[(2S)-3,3,3-trifluoro-2-hydroxypropyl]-4,5-dihydro-1H-1,2,4-triazol-1-yl}methyl)-1H-1,2,4-triazol-1-yl]pyridin-2-yl}-D-prolinamide]
14 | – | 320 | 206.3 | 66000 | O=C(c1ncccc1-n1cnc(Cn2nc(-c3ccc(Cl)cc3)n(C[C@@H](O)C(F)(F)F)c2=O)n1)N1CCOCC1 [Example 472, 5-(4-Chlorophenyl)-2-({1-[2-(morpholin-4-ylcarbonyl)pyridin-3-yl]-1H-1,2,4-triazol-3-yl}methyl)-4-[(2R)-3,3,3-trifluoro-2-hydroxypropyl]-2,4-dihydro-3H-1,2,4-triazol-3-one]
15 | 945 | 125 | 7.6 | – | CC1(C(=O)Nc2ncccc2-n2cnc(Cn3nc(-c4ccc(Cl)cc4)n(C[C@H](O)C(F)(F)F)c3=O)n2)CCCO1 (some centres unmarked) [Example 98]
16 | 525 | 6.3 | 83.3 | – | CCn1ccc(C(=O)Nc2ncccc2-n2cnc(Cn3nc(-c4ccc(Cl)cc4)n(C[C@H](O)C(F)(F)F)c3=O)n2)n1 [Example 110]
17 | – | 25 | 33.0 | 825 | O=C(NC1CC1(F)F)c1ncccc1-n1cnc(Cn2nc(-c3ccc(Cl)cc3)n(C[C@H](O)C(F)(F)F)c2=O)n1 (mixture of isomers) [Example 436, 3-[3-({3-(4-Chlorophenyl)-5-oxo-4-[(2S)-3,3,3-trifluoro-2-hydroxypropyl]-4,5-dihydro-1H-1,2,4-triazol-1-yl}methyl)-1H-1,2,4-triazol-1-yl]-N-[2,2-difluorocyclopropyl]pyridine-2-carboxamide]
18 | 18700 | 195 | – | – | CC1(C)CN(C(=O)c2ccccc2-n2cnc(Cn3nc(-c4ccc(Cl)cc4)n(C[C@H](O)C(F)(F)F)c3=O)n2)CCN1 [Example 181, 5-(4-Chlorophenyl)-2-[(1-{2-[(3,3-dimethylpiperazin-1-yl)carbonyl]phenyl}-1H-1,2,4-triazol-3-yl)methyl]-4-[(2S)-3,3,3-trifluoro-2-hydroxypropyl]-2,4-dihydro-3H-1,2,4-triazol-3-one]
19 | 835 | 1.45 | 575.9 | – | Cn1nccc1CNC(=O)c1ccccc1-n1cnc(Cn2nc(-c3ccc(Cl)cc3)n(C[C@H](O)C(F)(F)F)c2=O)n1 [Example 206, 2-[3-({3-(4-Chlorophenyl)-5-oxo-4-[(2S)-3,3,3-trifluoro-2-hydroxypropyl]-4,5-dihydro-1H-1,2,4-triazol-1-yl}methyl)-1H-1,2,4-triazol-1-yl]-N-[(1-methyl-1H-pyrazol-5-yl)methyl]benzamide]
20 | 1570 | 32 | 49.0 | – | O=C(CC1CC1)Nc1cccnc1-n1cnc(Cn2nc(-c3ccc(Cl)cc3)n(C[C@H](O)C(F)(F)F)c2=O)n1 [Example 46, N-{2-[3-({3-(4-Chlorophenyl)-5-oxo-4-[(2S)-3,3,3-trifluoro-2-hydroxypropyl]-4,5-dihydro-1H-1,2,4-triazol-1-yl}methyl)-1H-1,2,4-triazol-1-yl]pyridin-3-yl}-2-cyclopropylacetamide]
